Reference: PMC3836994, “Killer Bee Molecules: Antimicrobial Peptides as Effector Molecules to Target Sporogonic Stages of Plasmodium” (PLoS Pathogens, 2013)
Several values for one entry are separate records, joined by “and”; a condition that tells them apart may be missing. Identical values can stand only once. Entries after “also recorded” stand apart in the source; their conditions may differ.

Experiments:
[1] = test system: Anopheles gambiae Sua 4.0 cells; test: Sua 4.0 mosquito cell growth (cell counts); type: cell-based; conditions: 25 µM AMP; for Average number of cells over 3 replicates, peptide: seeded 30×10^4/ml, mean of 3 experiments
Experimental: (§1) To establish potential effects of AMPs on mosquito cells, the An. gambiae Sua 4.0 cell line was used. This facilitated an initial high-throughput screening and provided insights into AMP toxicity, mode of action (lytic or other) and speed of action. Sua 4.0 cells were maintained at 27°C in Schneider's insect medium supplemented with 10% FBS (foetal bovine serum) in T25 culture flasks (Fisher, UK).
(§2) Each AMP was tested separately to establish if it affected cell viability and growth. […] Cells were maintained for 3, 6, 24 or 48 h, after which they were resuspended and a sub-sample from duplicate wells counted using a haemocytometer. To establish cell viability after 48 h (whether simply arrested in development or non-viable), resuspended cells were added to an equal volume of 5% erythrosin B vital dye and viable cells excluding the stain were counted. The viability of 100 cells in triplicate wells was recorded. Each AMP assay was performed in triplicate and included a negative control minus the peptide (5 µl of water alone added to the medium) and a further control of 5 µl of 10% SDS (sodium dodecyl sulphate) substituted for the AMP as this causes 100% cell lysis.

[2] = test system: Anopheles gambiae Sua 4.0 cells; test: Sua 4.0 mosquito cell viability (erythrosin B exclusion); type: cell-based; parameters: dose or concentration left out as unconfirmed; conditions: after 48 h culture
Experimental: as §1, §2

[3] = test system: P. berghei ookinetes; test: P. berghei ookinete viability in vitro (erythrosin B); type: cell-based, Plasmodium berghei; conditions: 30 min; for Reduction in ookinete viability: versus control
Experimental: Our primary aim was to target parasites in mosquitoes before they cross the midgut wall, therefore AMPs were first assessed for their ability to kill ookinetes in vitro. […] Ookinete cultures of P. berghei were established from gametocytaemic blood as previously described. Parasites were enriched using cold 0.17M ammonium chloride after 18 h of culture and washed thoroughly with PBS (phosphate buffered saline). Parasites were seeded in triplicate wells of a 96-well microtitre plate at a density of 1×10^5/ml in a volume of 47.5 µl Schneider's insect medium (Invitrogen) with 2.5 µl of the test AMP (final concentration of 50 µM). Ookinetes were incubated for 30 min in conjunction with triplicate control wells containing medium with 2.5 µl of water instead of AMP. A sub-sample of parasites was then added to an equal volume of 5% erythrosin B to assess viability (150 ookinetes in total, taken from 3 wells). Each of the 33 AMPs was screened in this way and assays were performed 3 times. AMPs displaying a high degree of toxicity (>90% of ookinetes displaying erythrosin B staining) underwent further ookinete assays using a concentration of 100 µM AMP. To assess synergistic effects, combinations of two peptides were also tested at a concentration of 25 µM per AMP, in the assay described above.

[4] = test system: P. falciparum; conditions: added to blood meals at 30 µM; ref [35]; cited from earlier work
Experimental: Some candidate AMPs were additionally investigated using P. falciparum and An. gambiae. TP10 dimer and Melittin lowered both prevalence and intensity of P. falciparum infections produced from laboratory cultures. It has already been reported that the monomer of TP10, added to blood meals at 30 µM, reduced parasite prevalence by 35–45% [35].

[5] = test system: An. gambiae (Mali strain); test: Mosquito longevity after blood feeds containing AMP; type: in vivo, Anopheles gambiae; conditions: for Significance of effect on longevity over 10 days: 50 µM AMP, Kaplan-Meier, Wilcoxon, peptide vs control; for Percent alive, peptide: over 10 days, 50 µM AMP in human blood, feeds on days 0 and 7, 3 or 4 replicates
Experimental: (§3) Female An. gambiae (Mali strain, 3–5 days old) were used to establish the effects of AMPs on mosquito longevity and fecundity in the absence of confounding factors introduced with parasite infection. Two hundred 3–6 day old females were fed on human O+ whole blood supplemented with 50 µM AMP (or water control, 1 ml total volume) via feeding chambers of a Hemotek membrane feeding system. Fully engorged mosquitoes were randomly moved into four separate cages, each containing 25 mosquitoes, to facilitate monitoring. Mortality rates were recorded daily for a 10-day period, and oviposition sites were provided on the second and third night post-feeding. A second blood feed containing the same AMP was administered 7 days later to mimic the likelihood that mosquitoes would feed at least twice in the field during the development of sporogonic stages of the malaria parasite. Oviposition sites were again provided to assess fecundity through the number of eggs laid as an average per surviving mosquito. Assays for each AMP were repeated in triplicate on separate generations of mosquitoes. Due to egg retention under experimental conditions, egg production is best measured by dissecting mosquitoes that have not been provided with an oviposition site. However, this is not a feasible method of determining fecundity when longevity is also being measured.

[6] = test system: An. gambiae (Mali strain); test: Mosquito oviposition after blood feed containing AMP; type: in vivo, Anopheles gambiae; conditions: for Significance of effect on oviposition: 50 µM AMP, one-way ANOVA, peptide vs control; for Mean no. of eggs laid per mosquito, peptide: after first feed with 50 µM AMP, eggs laid over two nights, averaged per surviving mosquito, 3 or 4 replicates
Experimental: as §3

[7] = test system: P. falciparum; test: Cultured P. falciparum gametocytes membrane-fed to An. gambiae (oocyst prevalence and intensity); type: in vivo, Plasmodium falciparum; conditions: 50 µM; for Oocyst intensity (mean number of oocysts per gut, range in parentheses), peptide / Oocyst prevalence (oocyst positive mosquitoes), peptide: cultured gametocytes, An. gambiae
Experimental: P. falciparum NF54 gametocytes were produced through large-scale automated culture at the Pasteur Institute, Paris, [69]. Gametocytes were grown in 10 ml RPMI 1640 medium (Invitrogen), supplemented with 25 mM HEPES and L-glutamine, 10% heat-inactivated human serum and hypoxanthine (20 mg/L) under a constant gas supply (5% CO2, 1% O2, 94% N2). Fresh red blood cells (RBCs) were added to obtain a 7% haematocrit. Fourteen days after initiating the culture, gametocyte maturity was assessed on thin Giemsa-stained blood smears, and male gametocyte maturity verified by exflagellation tests. Gametocyte cultures were centrifuged for 5 min at 1500 rpm and the ∼500–600 µl pellet resuspended in fresh RBCs and AB human serum to give a final haematocrit of 40%.
Blood containing mature gametocytes (475 µl) was added to 25 µl of the test AMP (50 µM final concentration). Peptides were replaced by 25 µl of sterile deionized water for each control. The blood/parasite/peptide mixture was placed in a Hemotek membrane feeder, previously warmed to 37°C. For each feed, 70 to 100 nulliparous female An. gambiae mosquitoes were left to feed in the dark for 15 min and only fully engorged females were transferred to small cages and provided with 10% sucrose containing 0.05% PABA. After 8 days, 30 midguts were dissected and stained with bromo fluorescein for the detection of oocysts.

[8] = test system: P. falciparum; test: Field P. falciparum from gametocyte carriers membrane-fed to An. gambiae (Mali); type: in vivo, Plasmodium falciparum; conditions: Replicate 1, 50 µM
Source text: Nyaganabougou, a village approximately 60 km south-west of the Malian capital, Bamako, was used as a site for the source of donors of malaria-infected blood. Due to its proximity to the river Niger, which provides perennial mosquito breeding sites, Nyaganabougou has high numbers of infected individuals and an extended transmission season. Mosquitoes used to establish the An. gambiae Mali colony used for this study were originally collected in the village of Kenieroba (a distance of 15 km from Nyaganabougou). Potential male and female gametocyte carriers between the ages of 6–10 were screened by thick smear and parasite species and density determined by local staff, led by Saibou Doumbia.
Gametocyte carriers were taken to the Malaria Research and Training Centre at the University of Bamako for blood donation. Approximately 4 ml of blood was extracted from carriers and immediately divided into 3 Hemotek membrane feeders for testing 2 separate AMPs and one control for each carrier. Peptides were added to 950 µl of gametocytaemic blood for a final concentration of 50 µM. All parasite-positive individuals were subsequently treated appropriately for parasites and associated symptoms, as determined by, and carried out by, local health workers in Nyaganabougou.
Approximately 120 adult female An. gambiae (Mali, 4–7 days old) were starved overnight, and allowed to feed on the gametocytaemic blood/AMP mix for 30 min. Engorged females were maintained on 10% glucose with 0.05% PABA for 8 days before dissection. No oviposition sites were provided so that fecundity could be measured by determining retained eggs. Mosquito wing length, numbers of retained eggs and oocysts were recorded, and triplicate peptide experiments were carried out on different mosquito cohorts, using blood from different donors. Where possible, a minimum of 50 mosquitoes were dissected for each condition.

[9] = test system: An. gambiae (Mali strain); test: Mosquito longevity after blood feeds containing AMP; type: in vivo, Anopheles gambiae; conditions: 50 µM AMP in blood on days 0 and 7; extended to 30 days
[10] = test system: P. berghei; test: P. berghei infections in Anopheles stephensi (oocyst prevalence and intensity); type: in vivo, Plasmodium berghei; conditions: for Prevalence (proportion of infected mosquitoes), peptide: 50 µM peptide in gametocytaemic mouse blood fed to An. stephensi; for Intensity (mean number of oocysts, range in parentheses), peptide: 50 µM peptide, An. stephensi
Experimental: To assess the effects of AMPs on parasites in vivo, mouse blood containing P. berghei gametocytes was obtained by cardiac puncture and 475 µl was rapidly mixed with 25 µl (50 µM final concentration) of AMP. This mixture was fed to 100 nulliparous 3–5 day old female An. stephensi. A further 475 µl of blood from the same infection was mixed with 25 µl of distilled water to act as a control. Mosquitoes were maintained at 19°C for optimum parasite development. Between 30 and 50 mosquitoes were dissected after 10 days. Mosquito wing length, numbers of retained eggs and oocysts were recorded in triplicate experiments carried out on different mosquito cohorts.

[11] = 3 hrs in culture, haemocytometer count of duplicate wells
[12] = 50 µM of single peptide, n = 150 ookinetes per treatment per replicate
[13] = Replicate 1, dissected after 8 days
[14] = over the three replicates, 50 µM

Row | Molecule | Reduction in cell number (compared to control) ([1]; 3 hrs in culture) | Average number of cells over 3 replicates, peptide [1, 11] | Reduction in cell number (compared to control) ([1]; 24 hrs in culture) | Average number of cells over 3 replicates, peptide ([1]; 24 hrs in culture) | Reduction in cell number (compared to control) ([1]; 48 hrs in culture) | Average number of cells over 3 replicates, peptide ([1]; 48 hrs in culture) | Average ookinete viability (3 reps), peptide [3, 12] | Reduction in ookinete viability ([3]; 50 µM of single peptide) | Significance of effect on longevity over 10 days [5] | Percent alive, peptide [5] | Significance of effect on oviposition [6] | Mean no. of eggs laid per mosquito, peptide [6] | Oocyst intensity (mean number of oocysts per gut, range in parentheses), peptide ([7]; Replicate 1) | Oocyst prevalence (oocyst positive mosquitoes), peptide [7, 13] | Oocyst intensity (mean number of oocysts per gut, range in parentheses), peptide ([7]; Replicate 2) | Oocyst prevalence (oocyst positive mosquitoes), peptide ([7]; Replicate 2) | Oocyst intensity (mean number of oocysts per gut, range in parentheses), peptide ([7]; Replicate 3) | Oocyst prevalence (oocyst positive mosquitoes), peptide ([7]; Replicate 3) | further results
1 | CC[C@H](C)[C@H](NC(=O)[C@H](CCCCN)NC(=O)[C@H](CCCCN)NC(=O)[C@H](C)NC(=O)[C@H](CC(C)C)NC(=O)[C@H](C)NC(=O)[C@H](C)NC(=O)[C@H](CC(C)C)NC(=O)[C@H](C)NC(=O)[C@H](CCCCN)NC(=O)[C@H](CC(C)C)NC(=O)[C@H](CC(N)=O)NC(=O)[C@@H](NC(=O)[C@H](CCCCN)NC(=O)CNC(=O)[C@H](CC(C)C)NC(=O)[C@H](CC(C)C)NC(=O)[C@H](Cc1ccc(O)cc1)NC(=O)CNC(=O)[C@H](C)N)[C@@H](C)CC)C(=O)N[C@@H](CC(C)C)C(=O)O [TP10] | 31% | 220000 mL⁻¹ | 23% | 400000 mL⁻¹ | 3% | 780000 mL⁻¹ | 26% | 71% | – | – | – | – | – | – | – | – | – | – | Reduction in cell viability ([2]; versus control): 3%; Reduction of parasite prevalence [4]: 35–45%
2 | Mastoparan X | – | – | – | – | – | – | 41% | 57% | N/S | 84% | N/S | 44 | 2 (0–11) | 47% (30) | 2 (0–29) | 40% (30) | 11 (0–72) | 60% (30) | Average ookinete viability (3 reps), peptide ([3]; 100 µM of single peptide): 4%; Reduction in ookinete viability ([3]; 100 µM of single peptide): 96%; Oocyst prevalence (oocyst positive mosquitoes), peptide ([8]; blood of gametocyte carriers, progeny of field An. gambiae): 45% (40); Oocyst intensity (mean number of oocysts per gut, range in parentheses), peptide ([8]; field parasites and mosquitoes): 3 (0–21); Effect on longevity over 30 days (in words) [9]: no significant long-term effects on longevity
3 | Melittin | 84% | 50000 mL⁻¹ | 100% | no cells remaining and 0 ×10^4/ml | 100% | 0 mL⁻¹ | 0% | 100% | N/S | 84% | N/S | 41 | 0 | 0% (30) | <1 (0–1) | 17% (30) | 6 (0–74) | 37% (30) | Average viability of cells (3 replicates), peptide ([2]; erythrosin B exclusion, 100 cells in triplicate wells): no intact cells remained; also recorded: No remaining cells; Prevalence (proportion of infected mosquitoes), peptide ([10]; Replicate 1): 98% (50); Intensity (mean number of oocysts, range in parentheses), peptide ([10]; Replicate 1): 50 (0–192); Prevalence (proportion of infected mosquitoes), peptide ([10]; Replicate 2): 82% (49); Intensity (mean number of oocysts, range in parentheses), peptide ([10]; Replicate 2): 28 (0–160); Prevalence (proportion of infected mosquitoes), peptide ([10]; Replicate 3): 72% (50); Intensity (mean number of oocysts, range in parentheses), peptide ([10]; Replicate 3): 31 (0–412); Average reduction of parasite prevalence [10, 14]: 10%; Mean oocysts per midgut [10, 14]: 37 oocysts per midgut; Reduction of infection intensity ([10]; over the three replicates, 50 µM, control mean 114 oocysts): 68%; Average reduction of intensity of infection ([7]; over three replicates): 57%; Average reduction of prevalence ([7]; over three replicates): 60%
